According to patent publication US20210346321A1, “PHARMACEUTICAL COMPOSITION CONTAINING ALKYL CARBAMOYL NAPHTHALENYLOXY OCTENOYL HYDROXYAMIDE PHOSPHATE, TARTRATE OR COMBINATION THEREOF, AND PREPARATION METHOD THEREFOR” (CRYSTALGENOMICS, INC., priority 2018, published 2021):
Entries after “also recorded” stand apart in the source; their conditions may differ. Values belong to the molecule of their own block, whether it stands above or below them.

What was measured:
Assay type in all cases: physicochemical
[1] = Evaluation of change in moisture content (Karl Fischer); conditions: open state, room temperature (20 to 25° C., 50% or less), after 3 days versus initial
Source text: (§1) In order to evaluate the stability of the compound according to the present invention, an alkylcarbamoyl naphthalenyloxy octenoyl hydroxyamide compound was used in Comparative Example 1, an alkyl carbamoyl naphthalenyloxy octenoyl hydroxyamide tartrate was used in Example 13 and alkylcarbamoyl naphthalenyloxy octenoyl hydroxyamide phosphate was used in Example 14. As alkylcarbamoyl naphthalenyloxy octenoyl hydroxyamide, (E)-N1-(3-(dimethylamino)propyl)-N8-hydroxy-2-((naphthalen-1-yloxy)methyl)-2-octenediamide compound was used. Evaluation of stability was conducted by observing the change with storage time under room temperature (20-25° C., 50% or less), long-term (25±2° C. and 60±5% RH), accelerated (40±2° C. and 75±5% RH) and severe (60±2° C.) conditions.
In order to evaluate the change in moisture content, the compounds according to Examples and Comparative Examples were stored in an open state at room temperature (20 to 25° C., 50% or less), and the change was measured by the difference between the initial moisture content and the moisture content after 3 days, and the results are shown in FIG. 4. Moisture content was measured according to the volumetric titration method among methods of determining the water content (Karl Fischer method) of the general test methods of the Korean Pharmacopoeia (measurement equipment: 701KF_Metrohm).

[2] = Evaluation of change in appearance on storage; conditions: for change in appearance: open state storage, all conditions
Source text: as §1
In order to evaluate the change in appearance of the compounds according to Comparative Examples and Examples, each compound was stored in an open state according to the conditions shown in Table 13 below, and then the change in appearance was observed.

[3] = Comparison of the amount of change in related substances of the compounds; conditions: for increase in the amount of related substances: open state at room temperature for 3 days
Experimental: In order to evaluate the amount of change in the related substances of Example 12, the composition of Example 12 was placed in an accelerated condition chamber ([…], 75%±5), and the amount of related substance produced was measured for 6 months. For the measurement of the amount of related substances produced, the composition of Example 12 was pretreated and then tested according to the liquid chromatography method of the general test method of the Korean Pharmacopoeia to determine peak areas of the produced related substances (individual related substance 0.2% or less, total related substances 1.0%, measuring equipment: HPLC LC-2030C_Shimadzu). In Table 12, the amount of related substances produced is expressed in %. In addition, FIG. 3 is a result of measuring the related substance at 28 minutes under the accelerated condition, and the reference value is 0.2%.
In order to evaluate the amount of change in related substances of the compounds according to Comparative Examples and Examples, each compound was stored in an open state at room temperature for 3 days, and then the amount of related substances produced was measured in the same manner as in Experimental Example 3 and the results are shown in FIG. 5.
In addition, changes in the amount of related substances produced according to temperature and storage period are shown in FIGS. 6 and 7 for the compounds according to Examples 13 and 14.

[4] = Evaluation of change in content on storage (HPLC)
Source text: as §1
In order to evaluate the change in the content of the compounds according to Examples, each compound was stored in an open state or in a polyethylene bottle packaging (silica gel added) to measure the change in content. For measurement of content, compounds of Comparative Examples and Examples were pretreated and then the solutions were tested according to the liquid chromatography method of the general test methods of the Korean Pharmacopoeia to determine the peak area of CG200745 (measurement equipment: HPLC LC-2030C_Shimadzu). The content standard is to contain CG200745 in an amount corresponding to 95.0-105.5% of the indicated amount according to the standards and test methods of the present applicant.
The results measured in the open state are shown in Table 14 below, and the results measured in the bottle packaging are shown in Table 15 below.

[5] = open state, 1 day, Accelerated (40±2° C., 75±5% RH)
[6] = open state, 1 day, Long-term (25±2° C., 60±5% RH)
[7] = open state, 7 days, Room temperature (20-25° C., 50% or less)
[8] = bottle packaging, 1 day, Accelerated
[9] = bottle packaging, 1 day, Long-term
[10] = bottle packaging, 1 day, Room temperature
[11] = bottle packaging, 1 day, Severe
[12] = bottle packaging, 3 days, Accelerated
[13] = bottle packaging, 3 days, Long-term
[14] = bottle packaging, 3 days, Room temperature
[15] = bottle packaging, 7 days, Accelerated
[16] = bottle packaging, 7 days, Long-term
[17] = bottle packaging, 7 days, Room temperature
[18] = polyethylene bottle packaging (silica gel added), Initial

increase in moisture content [1]: about 0.01% | appearance ([2]; Initial): Powder | appearance [2, 5]: Powder | appearance [2, 6]: Powder | appearance ([2]; open state, 1 day, Room temperature (20-25° C., 50% or less)): Powder | appearance ([2]; open state, 1 day, Severe (60±2° C.)): Powder | appearance ([2]; open state, 7 days, Accelerated (40±2° C., 75±5% RH)): Powder | appearance ([2]; open state, 7 days, Long-term (25±2° C., 60±5% RH)): Powder | appearance [2, 7]: Powder | appearance ([2]; open state, 7 days, Severe (60±2° C.)): Powder | increase in the amount of related substances [3]: 0.02% | amount of related substances produced ([3]; regardless of the storage temperature and period (FIG. 7)): about 0.22% | content of CG200745 [4, 8]: 101.2% | content of CG200745 [4, 9]: 103.5% | content of CG200745 [4, 10]: 98.6% | content of CG200745 [4, 11]: 101.6% | content of CG200745 [4, 12]: 100.1% | content of CG200745 [4, 13]: 99.9% | content of CG200745 [4, 14]: 98.8% | content of CG200745 ([4]; bottle packaging, 3 days, Severe): 100.4% | content of CG200745 [4, 15]: 101.1% | content of CG200745 [4, 16]: 100.9% | content of CG200745 [4, 17]: 99.3% | content of CG200745 ([4]; bottle packaging, 7 days, Severe): 101.4% | content of CG200745 [4, 18]: 99.5%
Structure (SMILES): CN(C)CCCNC(=O)/C(=C/CCCCC(=O)NO)COc1cccc2ccccc12.O=P(O)(O)O [Example 14, (E)-N1-(3-(dimethylamino)propyl)-N8-hydroxy-2-((naphthalen-1-yloxy)methyl)-2-octenediamide phosphate]
change in appearance [2]: remained constant regardless of the condition | content on storage ([4]; all packaging conditions, heating, humidity): kept constant regardless of packaging conditions, heating, and humidity

increase in moisture content [1]: 2% | appearance ([2]; Initial, listed as Ex. 13): Powder | appearance [2, 5]: Gel-like | appearance [2, 6]: Gel-like | appearance ([2]; open state, 1 day, Room temperature (20-25° C., 50% or less), listed as Ex. 13): Powder | appearance ([2]; open state, 1 day, Severe (60±2° C.), listed as Ex. 13): Powder | appearance [2, 7]: Powder | appearance ([2]; open state, 7 days, Severe (60±2° C.), listed as Ex. 13): Powder; also recorded: Discoloration | increase in the amount of related substances [3]: 0.05% | content of CG200745 ([4]; open state, 1 day, Accelerated, listed as Ex. 13): 104.6% | content of CG200745 ([4]; open state, 1 day, Long-term, listed as Ex. 13): 104.3% | content of CG200745 ([4]; open state, 1 day, Room temperature, listed as Ex. 13): 103.4% | content of CG200745 ([4]; open state, 1 day, Severe, listed as Ex. 13): 103.3% | content of CG200745 ([4]; open state, 3 days, Accelerated): 102.3% | content of CG200745 ([4]; open state, 3 days, Long-term): 102.6% | content of CG200745 ([4]; open state, 3 days, Room temperature, listed as Ex. 13): 102.6% | content of CG200745 ([4]; open state, 3 days, Severe, listed as Ex. 13): 99.6% | content of CG200745 ([4]; open state, 7 days, Accelerated): 100.7% | content of CG200745 ([4]; open state, 7 days, Long-term): 99.4% | content of CG200745 ([4]; open state, 7 days, Room temperature, listed as Ex. 13): 100.0% | content of CG200745 ([4]; open state, 7 days, Severe, listed as Ex. 13): 102.2% | content of CG200745 ([4]; open state, Initial, listed as Ex. 13): 99.5% | content on storage ([4]; under the room temperature condition): maintained at a certain level
Structure (SMILES): CN(C)CCCNC(=O)/C(=C/CCCCC(=O)NO)COc1cccc2ccccc12 [Example 13, (E)-N1-(3-(dimethylamino)propyl)-N8-hydroxy-2-((naphthalen-1-yloxy)methyl)-2-octenediamide]
amount of related substances produced according to storage temperature ([3]; FIG. 6): maintained within a certain range at a relatively low temperature

increase in moisture content [1]: about 3% | appearance ([2]; Initial, listed as Comp. Ex. 1): Foam | appearance [2, 5]: Gel-like | appearance [2, 6]: Gel-like | appearance ([2]; open state, 1 day, Room temperature (20-25° C., 50% or less), listed as Comp. Ex. 1): Gel-like | appearance ([2]; open state, 1 day, Severe (60±2° C.), listed as Comp. Ex. 1): Gel-like | increase in the amount of related substances [3]: about 10% | content of CG200745 [4, 8]: 89.1% | content of CG200745 [4, 9]: 99.1% | content of CG200745 [4, 10]: 99.3% | content of CG200745 [4, 11]: 101.2% | content of CG200745 [4, 12]: 84.0% | content of CG200745 [4, 13]: 84.0% | content of CG200745 [4, 14]: 99.5% | content of CG200745 [4, 15]: 78.5% | content of CG200745 [4, 16]: 78.5% | content of CG200745 [4, 17]: 99.4% | content of CG200745 ([4]; open state, 1 day, Accelerated, listed as Comp. Ex. 1): 92.3% | content of CG200745 ([4]; open state, 1 day, Long-term, listed as Comp. Ex. 1): 99.9% | content of CG200745 ([4]; open state, 1 day, Room temperature, listed as Comp. Ex. 1): 101.0% | content of CG200745 ([4]; open state, 1 day, Severe, listed as Comp. Ex. 1): 101.1% | content of CG200745 ([4]; open state, 3 days, Room temperature, listed as Comp. Ex. 1): 101.9% | content of CG200745 ([4]; open state, 3 days, Severe, listed as Comp. Ex. 1): 97.2% | content of CG200745 ([4]; open state, 7 days, Room temperature, listed as Comp. Ex. 1): 100.1% | content of CG200745 ([4]; open state, 7 days, Severe, listed as Comp. Ex. 1): 89.1% | content of CG200745 ([4]; open state, Initial, listed as Comp. Ex. 1): 98.9% | content of CG200745 [4, 18]: 98.9%
Structure (SMILES): CN(C)CCCNC(=O)/C(=C/CCCCC(=O)NO)COc1cccc2ccccc12 [Comparative Example 1, (E)-N1-(3-(dimethylamino)propyl)-N8-hydroxy-2-((naphthalen-1-yloxy)methyl)-2-octenediamide, reference compound]
change in appearance [2]: changed from a foam to a highly viscous liquid or gel
